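Dose response: 5 concentrations. Exposure: 48 h. Format: 96-well plates. Endpoint: linear interpolation; highest concentration if not reached. At the GI50, growth is halved.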 Activity calls are given as the source filed them. No stated cut-off is given here; in the data, active = GI50 up to about 1.1 µM and inactive = higher.
Legend:
Assay in all cases: DTP human tumour cell line panel, 48 h
KM-20L2 = system: KM-20L2
RXF 631 = system: RXF 631
SNB-78 = system: SNB-78
M19-MEL = system: M19-MEL
LXFL 529 = system: LXFL 529
DMS-114 = system: DMS-114
HOP-18 = system: HOP-18
XF498 = system: XF498
MDA-N = system: MDA-N

CC(=O)Oc1c(Br)ccc2cc(C(Br)Br)c(C(=O)c3ccccc3)nc12
GI50 (KM-20L2): 19.4 µM (inactive)
GI50 (RXF 631): 23.5 µM (inactive)
GI50 (SNB-78): 27.7 µM (inactive)
GI50 (M19-MEL): 22.3 µM (inactive)
GI50 (LXFL 529): 30.6 µM (inactive)
GI50 (DMS-114): 24.8 µM (inactive)
GI50 (HOP-18): 17.2 µM (inactive)
GI50 (XF498): 14.8 µM (inactive)

COc1ccc(C2(Cl)C(Cl)(C(F)(F)F)C2(Cl)C(F)(F)F)cc1 (stereo unspecified)
GI50 (KM-20L2): 15.6 µM (inactive)
GI50 (RXF 631): 15.2 µM (inactive)
GI50 (SNB-78): 14.7 µM (inactive)
GI50 (M19-MEL): 13.6 µM (inactive)
GI50 (LXFL 529): 13.9 µM (inactive)
GI50 (DMS-114): 12.5 µM (inactive)
GI50 (HOP-18): 15.3 µM (inactive)
GI50 (XF498): 12.9 µM (inactive)

C/C(=N/O)c1sc(-c2nc(C)c(/C(C)=N\O)s2)nc1C
GI50 (KM-20L2): > 100 µM (inactive)
GI50 (RXF 631): > 100 µM (inactive)
GI50 (SNB-78): > 100 µM (inactive)
GI50 (M19-MEL): > 100 µM (inactive)
GI50 (LXFL 529): > 100 µM (inactive)
GI50 (DMS-114): > 100 µM (inactive)
GI50 (HOP-18): > 100 µM (inactive)
GI50 (XF498): > 100 µM (inactive)

COc1ccc2c(c1)CC1c3c(cc4c(c3-2)OCO4)CCN1C (stereo unspecified)
GI50 (KM-20L2): 30.8 µM (inactive)
GI50 (RXF 631): 24.5 µM (inactive)
GI50 (SNB-78): 40.7 µM (inactive)
GI50 (M19-MEL): 21.4 µM (inactive)
GI50 (LXFL 529): 36.5 µM (inactive)
GI50 (DMS-114): 24.3 µM (inactive)
GI50 (HOP-18): 21.4 µM (inactive)
GI50 (XF498): 27.7 µM (inactive)

COC(=O)c1ccc2c(c1)C(NC(C)=O)CCc1cc(OC)c(OC)c(OC)c1-2 (stereo unspecified)
GI50 (KM-20L2): 0.0118 µM (active)
GI50 (RXF 631): 0.014 µM (active)
GI50 (MDA-N): 0.0113 µM (active)
GI50 (SNB-78): < 0.0152 µM (active)
GI50 (M19-MEL): 0.0235 µM (active)
GI50 (LXFL 529): < 0.0154 µM (active)
GI50 (DMS-114): < 0.0126 µM (active)
GI50 (HOP-18): > 40.4 µM (inactive)
GI50 (XF498): 0.06 µM (active)

O=S(=O)(O)c1ccc(-c2c3nc(c(-c4ccc(S(=O)(=O)O)cc4)c4ccc([nH]4)c(-c4ccc(S(=O)(=O)O)cc4)c4nc(c(-c5ccc(S(=O)(=O)O)cc5)c5ccc2[nH]5)C=C4)C=C3)cc1
GI50 (KM-20L2): > 100 µM (inactive)
GI50 (RXF 631): 80.9 µM (inactive)
GI50 (SNB-78): 44.6 µM (inactive)
GI50 (M19-MEL): > 100 µM (inactive)
GI50 (LXFL 529): > 100 µM (inactive)
GI50 (DMS-114): 40.2 µM (inactive)
GI50 (HOP-18): > 100 µM (inactive)
GI50 (XF498): > 100 µM (inactive)

COC(=O)NC1C(C)OC(OC2C/C=C(/C)C3C=CC4C(OC5CC(OC6CCC(OC7CC(O)C(OC8CCC(O)C(C)O8)C(C)O7)C(C)O6)C(OC(C)=O)C(C)O5)C(C)CC(C)C4C3(C)/C(O)=C3/C(=O)OC4(CC(C=O)=CC(O)C4/C=C\2C)C3=O)CC1(C)[N+](=O)[O-] (stereo unspecified)
GI50 (KM-20L2): 1.29 µM (inactive)
GI50 (RXF 631): 0.603 µM (active)
GI50 (MDA-N): 0.661 µM (active)
GI50 (SNB-78): 1.82 µM (inactive)
GI50 (M19-MEL): 0.367 µM (active)
GI50 (LXFL 529): 0.352 µM (active)
GI50 (DMS-114): 0.385 µM (active)
GI50 (HOP-18): 2.15 µM (inactive)
GI50 (XF498): 0.261 µM (active)

CCOC(=O)c1c(C(F)(F)F)oc2c1ccc1nc3nonc3nc12
GI50 (KM-20L2): 18.2 µM (inactive)
GI50 (RXF 631): 19 µM (inactive)
GI50 (SNB-78): 14.7 µM (inactive)
GI50 (M19-MEL): 18.6 µM (inactive)
GI50 (LXFL 529): 14 µM (inactive)
GI50 (DMS-114): 23.7 µM (inactive)
GI50 (HOP-18): 11 µM (inactive)
GI50 (XF498): 17 µM (inactive)

O=C(/C=C/c1ccccc1O)c1cccnc1
GI50 (KM-20L2): > 100 µM (inactive)
GI50 (RXF 631): > 100 µM (inactive)
GI50 (SNB-78): > 100 µM (inactive)
GI50 (M19-MEL): > 100 µM (inactive)
GI50 (LXFL 529): > 100 µM (inactive)
GI50 (HOP-18): > 100 µM (inactive)
GI50 (XF498): > 100 µM (inactive)

CCc1cccc(C)c1NC(=O)CC1Sc2ccccc2NC1=O (stereo unspecified)
GI50 (KM-20L2): 46.5 µM (inactive)
GI50 (RXF 631): 35.8 µM (inactive)
GI50 (SNB-78): 34.4 µM (inactive)
GI50 (M19-MEL): 45.4 µM (inactive)
GI50 (LXFL 529): 56.8 µM (inactive)
GI50 (DMS-114): 57.3 µM (inactive)
GI50 (HOP-18): 19.5 µM (inactive)
GI50 (XF498): 72.9 µM (inactive)
